Source: PMC10828251, “A novel PSMA-targeting tracer with highly negatively charged linker demonstrates decreased salivary gland uptake in mice compared to [^68Ga]Ga-PSMA-11” (EJNMMI Radiopharmacy and Chemistry, 2024)
pKi: −log10 of the molar value. Where “and” joins values, the source holds several entries; their conditions need not be identical. Identical values can stand only once. Like-named read-outs stand apart in the source and are kept apart here. One block for each molecule: values may come before it. Numbered stars: 1 amine (or outer) side, 2 acyl side, 3 side chain; on linkers, the order of the positions; unused ones are H or OH. Peptide text beside a SMILES is read from it. * marks the point of attachment. X1 = O=C(O)CN1CCN(CC(=O)O)CC(Cc2ccc(NC(=S)*)cc2)N(CC(=O)O)CC1; DOTA = O=C(O)CN1CCN(CC(=O)O)CCN(CC(=O)*)CCN(CC(=O)O)CC1; γGlu = O=C(O)[CH](CCC(=O)[*:2])N[*:1]; CO = O=C([*:1])[*:2]; Ahx = NCCCCCC(=O)O

Columns and labels:
[1] = assessment of stability (radiolysis) by radio-HPLC; format: physicochemical; conditions: for degradation on radio-HPLC after Ga-68 labeling without radioprotectant: aqueous sodium acetate buffer
Description: The compound in Figure 7 was not further developed as a potential theranostic agent since the need for a radioprotectant with Ga-68 labeling indicated potentially significant instability with high dose beta and alpha emitters.
Figure 8. Radio-HPLC trace of the compound in Figure 7 seventy minutes after labeling with Ga-68. The labeling reaction consisted of 2 μL of the compound (0.5mg/mL), 40 μL of NaOAc Buffer B, 5 μL ascorbic acid (100mg/mL) and 0.2mL of Eckert & Ziegler GalliaPharm Generator eluate. Buffer B composition is stated above. The HPLC gradient used was 5%-95%B in 15 minutes where solvent B is acetonitrile and solvent A is water with 0.1% formic acid. Column: Phenomenex Synergi Hydro-RP 80A 150x4.6mm 4 micrometer column (Phenomenex, Torrance, CA).
Figure 10. Radio-HPLC trace of [^68Ga]Ga-JB-1498 immediately after radiolabeling. The small signal at the solvent front is a very small amount of [^68Ga]GaCl3. The labeling reaction contained 2 μL of JB1498 (0.5mg/mL), 40 μL of NaOAc Buffer B and 0.2mL of Eckert & Ziegler GalliaPharm Generator eluate. Buffer B composition is stated above. The HPLC gradient used was 5%-95%B in 15 minutes where solvent B is acetonitrile and solvent A is water with 0.1% formic acid. Column: Waters (Milford, MA) Symmetry C18, 5μm, 4.6 x 150 mm column.

GCP-II = target: T1, GCP-II (Homo sapiens, UniProt Q04609); assay: fluorescent enzymatic inhibition assay (competitive binding assay; NAAG hydrolysis by PC3-PIP membranes, Amplex Red glutamic acid readout); format: biochemical; conditions: upper limit set from the EC50; read-out: upper limit of Ki to PSMA
T1 construct: expressed in transfected cells; host or cells: PC3-PIP cells: washed membrane preparation after freeze-thaw cycles, 10 µg per well
Description: Binding affinity of JB-1498 toward GCP-II was determined using fluorescent enzymatic inhibition assay (Kozikowski et al. [2004]) as detailed in the Additional file 1.
PC3-PIP PSMA expressing cells were grown to confluency, harvested in 50mM Tris-HCl, pH 7.5 and subjected to 4 freezing and thawing cycles. Cell membranes were washed three times by centrifugation at 12,000g or higher. The cell membrane mixture was diluted to a concentration of 50 mg/mL in 50mM Tris-HCl, pH 7.5 (based on wet weight of the solid after centrifugation) and stored in a -80°C freezer until ready to use.
The assays were conducted on 96-well plates. […] Then the glutamic acid concentration was measured with Amplex Red glutamic acid assay kit (Invitrogen-Molecular Probes, now part of Thermo Fisher Scientific, Waltham, MA)) using a fluorescent plate reader (excitation at 530nm, measuring emission at 590nm). The fluorescence signals at 590nm were then normalized and normalized fluorescence was plotted against the Log concentration of JB1498 ligand (Figure 1). EC50 was determined using the equation: Fluorescence = baseline + (max fluorescence – baseline) […]. Microsoft Excel and KaleidaGraph (Synergy Software, Reading, PA) were used for data processing and graphing.

[2] = test system: PC3-PIP PSMA-expressing cell line; assay: initial biodistribution study, low molar activity, PC3-PIP tumor-bearing NSG mice; format: in vivo; conditions: 1 hour after injection, specific activity below 7.4 GBq/μmol; for Biodistribution, Tumor: PC3-PIP PSMA+ tumor, NSG mice
Description: Radiolabeling of JB-1498 for the initial biodistribution study was performed using [^68Ga]GaCl3 from a spent ^68Ge/^68Ga generator from Isotopen Technologies Garching (Garching, Germany, currently ITM). JB-1498 with [^68Ga]GaCl3 was heated in aqueous sodium acetate buffer at pH 4–5 and 97 C for 7 min. The reaction product was HPLC-purified for the biodistribution study as detailed in the Additional file 1. The molar activity of the purified product was less than 7.4 GBq/μmol (200 Ci/mmol) at the conclusion of synthesis.
For the initial biodistribution study in tumor bearing mice, 3 male 10 week-old NSG mice (NOD.Cg-Prkdc^scidIl2rg^tm1Wjl/SzJ) were inoculated subcutaneously with 4 million cells of PC3-PIP PSMA-expressing cell line. Mice were housed in a specific pathogen free, temperature- and humidity-controlled environment, in standard micro-isolator top cages with ad libitum access to chow. Biodistribution studies were conducted when the long axis of the tumor exceeded 1 cm. Each mouse was injected with 100 μL of the [^68Ga]Ga-JB-1498 solution under isoflurane anesthesia via retro-orbital injection in the right eye and euthanized 1 h after injection. Major organs (including the left salivary glands) were dissected for radioactivity quantification. The dose injected was 0.74 ± 0.27 MBq.

[3] = micro-PET imaging in non-tumor-bearing NSG mice; format: in vivo; conditions: for course of activity in salivary glands and kidneys, dynamic micro-PET: during the first hour
Description: For the micro-PET imaging study, high molar activity [^68Ga]Ga-JB-1498 and [^68Ga]Ga-PSMA-11 were administered to non-tumor bearing NSG mice via tail vein injection. The dose injected was 5.3MBq of [^68Ga]Ga-PSMA-11 and 4.4 MBq of [^68Ga]Ga-JB-1498. Imaging was performed on a nanoScan PET/CT instrument (Mediso USA, Arlington, Virginia). List mode PET acquisition was performed for 45 min starting 25 min post-injection. CT was performed for PET attenuation correction and anatomic localization.

[4] = high molar activity biodistribution study in non-tumor-bearing NSG mice; format: in vivo; conditions: 1 hour after injection, high specific activity 59 GBq/μmol
Description: For the high molar activity biodistribution and imaging study, a fresh 1.85 GBq (50mCi) GalliaPharm Gallium-68 generator from Eckert & Ziegler (Berlin, Germany) was used. Radiolabeling of JB-1498 with [^68Ga]GaCl3 was performed in aqueous sodium acetate buffer at pH 4–5 and 98 °C for 10 min. The reaction product was diluted with water, loaded onto an Oasis HLB cartridge, washed with water, and eluted with 2:1 PBS:EtOH as detailed in the Additional file 1. The fractions with highest radioactivity were diluted with saline for injection in mice. Please refer to Additional file 1: Figs. 4 and Fig. 5 for HPLC traces of the products prior to and after solid phase extraction. The molar activity of the purified product was estimated to be 59 GBq/μmol (1600 Ci/mmol) at the time of first injection. [^68Ga]Ga-PSMA-11 was produced concurrently by incubating [^68Ga]GaCl3 and PSMA-11 precursor in sodium acetate buffer at pH 4–5 at room temperature for 10 min. Please refer to Additional file 1: Fig. 6 for HPLC trace of the product. The molar activity of the product was estimated to be 48 GBq/μmol (1300 Ci/mmol) at the time of first injection.
For the high molar activity biodistribution study aimed at maximizing salivary gland uptake, 3 male NSG mice without tumor were injected with 100μL of the [^68Ga]Ga-JB-1498 solution under anesthesia via retro-orbital injection per the above-described protocol. The dose injected was 1.31 ± 0.26 MBq.

LNCaP cell line = test system: LNCaP cell line; parameters: method as in Rousseau et al. [2018]; conditions: NSG mice, one hour after injection, ref Rousseau et al. [2018], cited from earlier work
[5] = test system: PSMA-expressing metastatic prostate cancer; parameters: method as in Sartor et al. [2021]; conditions: 7.4 GBq (200 mCi) regimen; ref Sartor et al. [2021]; cited from earlier work
[6] = N=3, listed as [^68Ga]Ga-JB1498
[7] = LNCaP tumor model, listed as [^68Ga]Ga-PSMA 11

T1 sequence (Q04609 whole entry): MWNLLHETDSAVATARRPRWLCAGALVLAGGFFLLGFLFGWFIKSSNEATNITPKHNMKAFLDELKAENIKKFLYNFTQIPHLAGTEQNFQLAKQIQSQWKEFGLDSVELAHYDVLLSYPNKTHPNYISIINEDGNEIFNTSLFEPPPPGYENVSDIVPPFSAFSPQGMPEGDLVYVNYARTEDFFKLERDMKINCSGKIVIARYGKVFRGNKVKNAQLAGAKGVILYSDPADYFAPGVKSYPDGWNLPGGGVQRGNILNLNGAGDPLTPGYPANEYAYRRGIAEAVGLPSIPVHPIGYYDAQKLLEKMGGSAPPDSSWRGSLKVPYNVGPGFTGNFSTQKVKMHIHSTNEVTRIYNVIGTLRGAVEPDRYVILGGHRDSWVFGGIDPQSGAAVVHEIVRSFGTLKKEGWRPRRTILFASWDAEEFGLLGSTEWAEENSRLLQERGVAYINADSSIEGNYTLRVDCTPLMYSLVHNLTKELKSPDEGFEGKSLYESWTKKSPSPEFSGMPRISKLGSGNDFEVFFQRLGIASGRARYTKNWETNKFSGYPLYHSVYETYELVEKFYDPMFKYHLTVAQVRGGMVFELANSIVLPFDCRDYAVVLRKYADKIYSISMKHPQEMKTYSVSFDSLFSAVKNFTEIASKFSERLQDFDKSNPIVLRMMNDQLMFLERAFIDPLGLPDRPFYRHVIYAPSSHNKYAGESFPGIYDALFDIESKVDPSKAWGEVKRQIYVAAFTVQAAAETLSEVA

Molecule: NC(=O)C(CCCCNC(=O)CN1CCN(CC(=O)O)CCN(CC(=O)O)CCN(CC(=O)O)CC1)NC(=O)C(Cc1ccc(O)cc1)NC(=O)C(CCC(=O)O)NC(=O)C(CCC(=O)O)NC(=O)C(CCC(=O)O)NC(=O)CCCCCNC(=O)CCC(NC(=O)NC(CCC(=O)O)C(=O)O)C(=O)O (centres unmarked) [JB-1498] ({Glu-CO-γGlu-Ahx}-EEEYK(DOTA)-NH2; configuration not given here)
pKi (GCP-II): > 9.52

Molecule: NC(=O)C(CCCCNC(=O)CN1CCN(CC(=O)O)CCN(CC(=O)O)CCN(CC(=O)O)CC1)NC(=O)C(Cc1ccc(O)cc1)NC(=O)C(CCC(=O)O)NC(=O)C(CCC(=O)O)NC(=O)C(CCC(=O)O)NC(=O)CCCCCNC(=O)CCC(NC(=O)NC(CCC(=O)O)C(=O)O)C(=O)O.[68Ga] (centres unmarked) [[^68Ga]Ga-JB-1498] ({Glu-CO-γGlu-Ahx}-EEEYK(DOTA)-NH2; configuration not given here)
Biodistribution, Tumor [2]: 12.09%ID/gram of tissue and 10.49%ID/gram of tissue | Biodistribution, Tumor ([2]; listed as [^68Ga]Ga-JB1498): 12.09 ± 1.28 %ID/gram of tissue | Biodistribution, Blood ([2]; PSMA+ tumor-bearing NSG mice): 0.22%ID/gram of tissue | Biodistribution, Bone ([2]; PSMA+ tumor-bearing NSG mice): 0.11%ID/gram of tissue and 0.10%ID/gram of tissue | Biodistribution, Heart ([2]; PSMA+ tumor-bearing NSG mice): 0.12%ID/gram of tissue and 0.11%ID/gram of tissue | Biodistribution, Liver ([2]; PSMA+ tumor-bearing NSG mice): 0.20%ID/gram of tissue and 0.18%ID/gram of tissue | Biodistribution, Lung ([2]; PSMA+ tumor-bearing NSG mice): 0.24%ID/gram of tissue and 0.21%ID/gram of tissue | Biodistribution, Muscle ([2]; PSMA+ tumor-bearing NSG mice): 0.22%ID/gram of tissue and 0.19%ID/gram of tissue | Biodistribution, Salivary gland ([2]; PSMA+ tumor-bearing NSG mice): 0.13 ± 0.01 %ID/gram of tissue and 0.13%ID/gram of tissue and 0.11%ID/gram of tissue | Biodistribution, Spleen ([2]; PSMA+ tumor-bearing NSG mice, 2 splenic samples): 0.31%ID/gram of tissue and 0.27%ID/gram of tissue | Biodistribution, Liver ([2]; PSMA+ tumor-bearing NSG mice, listed as [^68Ga]Ga-JB1498): 0.20 ± 0.09 %ID/gram of tissue | Biodistribution, Kidney ([2]; PSMA+ tumor-bearing NSG mice, single sample of left kidney): 12.98%ID/gram of tissue | degradation on radio-HPLC after Ga-68 labeling without radioprotectant ([1]; no radioprotectant): no significant degradation | radiolysis on radio-HPLC 2.5 hours after synthesis ([1]; no radioprotectant, compared to trace immediately after radiolabeling): no significant radiolysis | salivary gland (SG) and background activity on micro-PET compared to [68Ga]Ga-PSMA-11 ([3]; 1 h post injection, same SUV grayscale): very little | tracer excretion on micro-PET ([3]; 1 h post injection, most of injected tracer in the urinary bladder): rapid tracer excretion via the kidneys | salivary gland and kidney uptake on micro-PET images compared to [68Ga]Ga-PSMA-11 ([3]; 1 h post-injection, tail vein, non-tumor bearing NSG mice): much lower | course of activity in salivary glands and kidneys, dynamic micro-PET [3]: gradually decreasing | Biodistribution, Blood ([4]; N=3): 0.39%ID/gram of tissue | Biodistribution, Combined Salivary gland ([4]; N=3): 0.39%ID/gram of tissue | Biodistribution, Kidney ([4]; N=3): 10.12%ID/gram of tissue | Biodistribution, Liver ([4]; N=3): 0.68%ID/gram of tissue | Biodistribution, Lung ([4]; N=3): 0.66%ID/gram of tissue | Biodistribution, Spleen ([4]; N=3): 2.34%ID/gram of tissue | Biodistribution, parotid (Left) ([4]; N=3): 0.36%ID/gram of tissue | Biodistribution, submandibular (Left) ([4]; N=3): 0.42%ID/gram of tissue | Biodistribution, Combined Salivary gland [4, 6]: 0.39 ± 0.24 %ID/gram of tissue | Biodistribution, Kidney [4, 6]: 10.12 ± 1.73 %ID/gram of tissue

Molecule: [^177Lu]Lu-PSMA-617
complete response [5]: 9% | partial response [5]: 42%

Further lines, with some results ahead:

degradation on radio-HPLC after Ga-68 labeling without radioprotectant ([1]; no radioprotectant): multiple peaks in radio-HPLC | radiolysis on radio-HPLC two hours after radiolabeling ([1]; in the presence of ascorbic acid): some radiolysis
Molecule: NC(=O)C(CCCCNC(=S)Nc1ccc(CC2CN(CC(=O)O)CCN(CC(=O)O)CCN2CC(=O)O)cc1)NC(=O)C(Cc1ccc(O)cc1)NC(=O)C(CCC(=O)O)NC(=O)C(CCC(=O)O)NC(=O)C(CCC(=O)O)NC(=O)CCCCCNC(=O)CCC(NC(=O)NC(CCC(=O)O)C(=O)O)C(=O)O (centres unmarked) (68Ga complex, metal not drawn) [compound in Figure 7] ({Glu-CO-γGlu-Ahx}-EEEYK(X1)-NH2; configuration not given here)
stability on radio-HPLC after Ga-68 labeling with radioprotectant ([1]; aqueous sodium acetate buffer with ascorbic acid): reasonable stability with minimal degradation

course of activity in salivary glands and kidneys, dynamic micro-PET [3]: gradually increasing
Molecule: O=C([O-])CN(CCN(CC(=O)[O-])Cc1cc(CCC(=O)NCCCCCC(=O)NCCCC[C@H](NC(=O)N[C@@H](CCC(=O)O)C(=O)O)C(=O)O)ccc1[O-])Cc1cc(CCC(=O)O)ccc1[O-].[68Ga+3].[OH3+] [[^68Ga]Ga-PSMA-11]
Biodistribution, Blood (LNCaP cell line; LNCaP tumor model): 0.31%ID/gram of tissue | Biodistribution, Kidney (LNCaP cell line; LNCaP tumor model): 182.0 ± 33.5 %ID/gram of tissue | Biodistribution, Liver (LNCaP cell line; LNCaP tumor model): 0.44%ID/gram of tissue | Biodistribution, Muscle (LNCaP cell line; LNCaP tumor model): 0.54%ID/gram of tissue | Biodistribution, Salivary gland (LNCaP cell line; LNCaP tumor model): 10.00 ± 2.52 %ID/gram of tissue | Biodistribution, Spleen (LNCaP cell line; LNCaP tumor model): 22.20%ID/gram of tissue | Biodistribution, Kidney (LNCaP cell line; [7]): 182.00%ID/gram of tissue | Biodistribution, Salivary gland (LNCaP cell line; [7]): 10.00%ID/gram of tissue | Biodistribution, Tumor (LNCaP cell line; LNCaP tumor): 8.67%ID/gram of tissue
